Consider seven compounds from US10953107B2, “Polypeptide compositions and methods for site-specific targeting of therapeutic agents” (Trustees of Boston University, priority 2018, dated 2021).

For data set [1] the following is noted: first value of 'x vs. y', second value is an unnamed comparator arm, cited from earlier work; for OS: overall survival; for PFS: progression-free survival.
The test system of another data set is MIA PaCa2. The data set is described as follows: ADC cytotoxicity, MTT cell viability assay. The class given is cell-based, human. On the procedure:
(§1) Cell viability was assessed by an MTT assay in Panc1 cells and other cell lines at 72 hours post-treatment with increasing concentrations of the ADC and relevant controls. The assay confluence was 20% at the start and up to 60% confluence.
(§2) Cell viability was assessed by an MTT assay in other pancreatic cancer cell lines.
(§3) Cell viability was assessed by an MTT assay in pancreatic cancer cell lines at 72 hours post-treatment with increasing concentrations of the ADC and relevant controls.
In general terms: Formazan colour is commonly taken as a measure of viable cells.

For data set [2], the system named is Panc1 Cells. The data set is described as follows: ADC cytotoxicity, MTT cell viability assay. Type of data set: cell-based, human.
Another data set relates to BxPC-3. The data set is described as follows: ADC cytotoxicity, MTT cell viability assay. The class given is cell-based. Here is the method: as §1, §2, §3
The next data set concerns Capan-1. The data set is described as follows: ADC cytotoxicity, MTT cell viability assay. Type of data set: cell-based, human. Here is the method: as §1, §2, §3
Another data set deals with H6c7. The data set is described as follows: ADC cytotoxicity in normal cell lines, MTT assay. Type of data set: cell-based. Conditions: H6c7, additional characterization (FIG. 41).
A further data set has as its system MIA PaCa2 Cells. The data set is described as follows: Cell viability in response to increasing doses of mertansine (FIG. 19). The class given is cell-based, human. Conditions: cell viability (FIG. 19). On the procedure: (§4) Cell viability was measured in response to increasing doses of mertansine in Panc1 and MIA PaCa2 cell lines to determine the IC50 compared to other chemotherapeutic agents (gemcitabine and Nab-paclitaxel) (FIG. 19). Panc1 cells are a human pancreatic cancer cell line isolated from a pancreatic carcinoma of ductal cell origin. MIA PaCa-2 cells are another type of pancreatic cancer cell line that was derived from the carcinoma of a patient.

Data set [3] concerns Panc1 Cells. The description is as above. Type of data set: cell-based, human. Conditions: cell viability (FIG. 19). On the procedure:
as §4

A further data set has as its system HUVECs. The data set is described as follows: ADC cytotoxicity in normal cell lines, MTT assay. To be noted: read-out: IC50 / cytotoxicity; HUVEC, additional characterization (FIG. 41). On the procedure:
(§5) Cell viability was assessed by an MTT assay in KV2 cells and other normal cell lines at 72 hours post-treatment with increasing concentrations of the ADC and relevant controls.
(§6) Cell viability was assessed by an MTT assay in normal cell lines at 72 hours post-treatment with increasing concentrations of the ADC and relevant controls.

For another data set, the system named is BJ fibroblasts. The data set is described as follows: ADC cytotoxicity in normal cell lines, MTT assay. On the procedure: as §5, §6
A further data set has as its system mIMCD. The data set is described as follows: ADC cytotoxicity in normal cell lines, MTT assay. Here is the method: as §5, §6
Another data set deals with KV2 cells. The data set is described as follows: ADC cytotoxicity in normal cell lines, MTT assay. Conditions: read-out: IC50 / cytotoxicity. Here is the method: as §5, §6
A short description of data set [4]: Circular dichroism (CD): specificity and structural assembly of peptides. Type of data set: physicochemical. Conditions: circular dichroism (FIG. 2A, FIG. 14A).
Source text: We designed and prepared peptide sequences that form a tetrameric coiled coil,^14,15 but discourage self-interaction (positively charged amino acids in docking, negatively charged in receiving).
Where [5] appears, read: read-out: IC50 / cytotoxicity, MTT (FIG. 32), NS = not significantly different from 100% viability of control.
[6] abbreviates: read-out: IC50 / cytotoxicity, additional characterization (FIG. 41).

Like-named read-outs stand apart in the source and are kept apart here.

Turning to `C#Cc1cccc(Nc2ncnc3cc(OCCOC)c(OCCOC)cc23)c1` [Erlotinib], in data set [1], the OS is on record as 6.2 vs. 5.9 mo and the PFS is 3.8 vs. 3.6 mo.

Regarding `Nc1ccn([C@@H]2O[C@H](CO)[C@@H](O)C2(F)F)c(=O)n1` [Gemcitabine], the IC50 in the data set with MIA PaCa2 (Homo sapiens, MIA PaCa-2, MIA PaCa2, MTT (FIG. 29-30)) was 256 nM; in the data set on Panc1 Cells [2] (Homo sapiens, PANC-1, Panc1, MTT, 72 hours (FIG. 28)) it was 700 nM.

Regarding `COc1cc2cc(c1Cl)N(C)C(=O)C[C@H](OC(=O)[C@H](C)N(C)C(=O)CCS)[C@]1(C)O[C@H]1[C@H](C)[C@@H]1C[C@@](O)(NC(=O)O1)[C@H](OC)/C=C/C=C(\C)C2` [Mertansine, mertansine], the IC50 in the data set with BxPC-3 (BxPC-3, MTT (FIG. 30)) is 18.8 nM; in the data set on BxPC-3 (BxPC-3, additional characterization (FIG. 39)), 18.8 nM; with Capan-1 (Capan-1, MTT (FIG. 30)), 22.1 nM; in the data set on Capan-1 (Capan-1, additional characterization (FIG. 39)), 22.1 nM; with MIA PaCa2 (MIA PaCa2, MTT (FIG. 29-30)), 0.31 nM; in the data set on MIA PaCa2 (MIA PaCa2, additional characterization (FIG. 39)), 0.31 nM. Also, the IC50 in the data set with H6c7 stood at 2.4 nM; with Panc1 Cells [2] (Panc1, MTT, 72 hours (FIG. 28-30)), 1.98 nM; in the data set on Panc1 Cells [2] (Panc1, additional characterization (FIG. 39)), 1.98 nM; in the data set with MIA PaCa2 Cells, 0.268 nM; in the data set on Panc1 Cells [3], 1.19 nM; in the data set on HUVECs it was 2.7 nM. In addition, the IC50 with BJ fibroblasts (setting [5]) is 16.8 nM; in the data set on BJ fibroblasts (setting [6]), 16.8 nM; in the data set on mIMCD (setting [5]), 3 nM; in the data set on mIMCD (setting [6]), 3 nM; in the data set on KV2 cells (KV2, additional characterization (FIG. 41)) it was 289 nM; with KV2 cells (KV-2, MTT, 72 hours (FIG. 31-32), NS = not significantly different from 100% viability of control), 95.5 nM.

On to Cixutumumab, for which, in data set [1], the OS was 7.0 vs. 6.7 mo and the PFS is recorded as 3.6 vs 3.6 mo.

For the compound “MK(LEEIVSE)2LEEIVTELEEIVSEVGER (MKLEEIVSELEEIVSELEEIVTELEEIVSEVGER) [Peptide V/E, acidic V/E-type docking peptide]”, the “self-assembly / coiled coil formation” value in [4] is on record as “do not self-assemble”.

MK(LKKIKSV)4VGER [Peptide V/K]: the “self-assembly / coiled coil formation” value in [4] was “do not self-assemble”.

As for Nimotuzumab, in data set [1], the OS is recorded as 8.6 vs. 6.0 mo and the PFS was 5.3 vs. 3.6 mo.
